Assay results taken from the supplement of paper PMC10307832.

Tests used:
Experiment in all cases: relative viability (nuclei count vs DMSO), 5 days (fraction); higher = more cells survive
201T = tested on: 201T
Outline: (§1)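 Relative viability is defined as nuclei in treated wells over nuclei in vehicle wells. Duplicate plates were run and medians reported. Lung cancer cell lines in 1536-well plates were dosed by pin tool one day after seeding, with one drug or with a fixed anchor-drug dose plus five library-drug doses (not always all listed) in √10 steps, and nuclei were counted after 5 days.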

NCI-H1650 = tested on: NCI-H1650
Outline: as §1

BEN = tested on: BEN
Outline: as §1

NCI-H2009 = tested on: NCI-H2009
Outline: as §1

NCI-H1437 = tested on: NCI-H1437
Outline: as §1

ABC-1 = tested on: ABC-1
Outline: as §1

HCC-366 = tested on: HCC-366
Outline: as §1

CAL-12T = tested on: CAL-12T
Outline: as §1

NCI-H3122 = tested on: NCI-H3122
Outline: as §1

NCI-H661 = tested on: NCI-H661
Outline: as §1

PC-14 = tested on: PC-14
Outline: as §1

HARA = tested on: HARA
Outline: as §1

NCI-H727 = tested on: NCI-H727
Outline: as §1

EKVX = tested on: EKVX
Outline: as §1

NCI-H441 = tested on: NCI-H441
Outline: as §1

COR-L23 = tested on: COR-L23
Outline: as §1

LU99A = tested on: LU99A
Outline: as §1

NCI-H2170 = tested on: NCI-H2170
Outline: as §1

NCI-H838 = tested on: NCI-H838
Outline: as §1

NCI-H1666 = tested on: NCI-H1666
Outline: as §1

COR-L 105 = tested on: COR-L 105
Outline: as §1

LK-2 = tested on: LK-2
Outline: as §1

`C=C1C(=O)O[C@@H](CCCCCCCC)[C@@H]1C(=O)O` [C-75] + CS(=O)(=O)N1CCN(Cc2cc3nc(-c4cccc5[nH]ncc45)nc(N4CCOCC4)c3s2)CC1 [Pictilisib] (partner 1 µM) gave a relative viability (201T; first compound 0.08 µM) of 0.697, a relative viability (201T; first compound 0.253 µM) of 0.782 and a relative viability (201T; first compound 0.8 µM) of 0.628. For the same molecule, the relative viability (201T; first compound 2.53 µM) was 0.673, the relative viability (201T; first compound 8 µM) was 0.719 and the relative viability (NCI-H1650; first compound 0.08 µM) was 0.632. For the same molecule, the relative viability (NCI-H1650; first compound 0.253 µM) was 0.691, the relative viability (NCI-H1650; first compound 0.8 µM) was 0.521 and the relative viability (NCI-H1650; first compound 2.53 µM) was 0.474. The relative viability (NCI-H1650; first compound 8 µM) was 0.619, the relative viability (BEN; first compound 0.08 µM) was 0.541 and the relative viability (BEN; first compound 0.253 µM) was 0.651. The relative viability (BEN; first compound 0.8 µM) was 0.538, the relative viability (BEN; first compound 2.53 µM) was 0.553 and the relative viability (BEN; first compound 8 µM) was 0.443. It also gave a relative viability (NCI-H2009; first compound 0.08 µM) of 0.789, a relative viability (NCI-H2009; first compound 0.253 µM) of 0.96 and a relative viability (NCI-H2009; first compound 0.8 µM) of 0.789. The relative viability (NCI-H2009; first compound 2.53 µM) was 0.428, the relative viability (NCI-H2009; first compound 8 µM) was 0.6 and the relative viability (NCI-H1437; first compound 0.08 µM) was 0.489. The relative viability (NCI-H1437; first compound 0.253 µM) was 0.402, the relative viability (NCI-H1437; first compound 0.8 µM) was 0.464 and the relative viability (NCI-H1437; first compound 2.53 µM) was 0.472. It also gave a relative viability (NCI-H1437; first compound 8 µM) of 0.491, a relative viability (ABC-1; first compound 0.08 µM) of 0.733 and a relative viability (ABC-1; first compound 0.253 µM) of 0.87. For the same molecule, the relative viability (ABC-1; first compound 0.8 µM) was 0.659, the relative viability (ABC-1; first compound 2.53 µM) was 0.646 and the relative viability (ABC-1; first compound 8 µM) was 0.469. The relative viability (HCC-366; first compound 0.08 µM) was 0.238, the relative viability (HCC-366; first compound 0.253 µM) was 0.165 and the relative viability (HCC-366; first compound 0.8 µM) was 0.152. For the same molecule, the relative viability (HCC-366; first compound 2.53 µM) was 0.264, the relative viability (HCC-366; first compound 8 µM) was 0.148 and the relative viability (CAL-12T; first compound 0.08 µM) was 0.58. It also gave a relative viability (CAL-12T; first compound 0.253 µM) of 0.624, a relative viability (CAL-12T; first compound 0.8 µM) of 0.306 and a relative viability (CAL-12T; first compound 2.53 µM) of 0.292. The relative viability (CAL-12T; first compound 8 µM) was 0.486, the relative viability (NCI-H3122; first compound 0.08 µM) was 0.635 and the relative viability (NCI-H3122; first compound 0.253 µM) was 0.753. It also gave a relative viability (NCI-H3122; first compound 0.8 µM) of 0.545, a relative viability (NCI-H3122; first compound 8 µM) of 0.555 and a relative viability (NCI-H661; first compound 0.08 µM) of 0.398. For the same molecule, the relative viability (NCI-H661; first compound 0.253 µM) was 0.493, the relative viability (NCI-H661; first compound 0.8 µM) was 0.355 and the relative viability (NCI-H661; first compound 2.53 µM) was 0.315. The relative viability (NCI-H661; first compound 8 µM) was 0.382, the relative viability (PC-14; first compound 0.08 µM) was 0.748 and the relative viability (PC-14; first compound 0.253 µM) was 0.997. The relative viability (PC-14; first compound 0.8 µM) was 0.668, the relative viability (PC-14; first compound 2.53 µM) was 0.753 and the relative viability (PC-14; first compound 8 µM) was 0.695. It also gave a relative viability (HARA; first compound 0.08 µM) of 0.413, a relative viability (HARA; first compound 0.253 µM) of 0.432 and a relative viability (HARA; first compound 0.8 µM) of 0.375. It also gave a relative viability (HARA; first compound 8 µM) of 0.585, a relative viability (NCI-H727; first compound 0.08 µM) of 0.436 and a relative viability (NCI-H727; first compound 0.253 µM) of 0.59. It also gave a relative viability (NCI-H727; first compound 0.8 µM) of 0.339, a relative viability (NCI-H727; first compound 2.53 µM) of 0.362 and a relative viability (NCI-H727; first compound 8 µM) of 0.577. The relative viability (EKVX; first compound 0.08 µM) was 0.436, the relative viability (EKVX; first compound 0.253 µM) was 0.448 and the relative viability (EKVX; first compound 0.8 µM) was 0.426. The relative viability (EKVX; first compound 2.53 µM) was 0.458, the relative viability (EKVX; first compound 8 µM) was 0.452 and the relative viability (NCI-H441; first compound 0.08 µM) was 0.473. It also gave a relative viability (NCI-H441; first compound 0.253 µM) of 0.536, a relative viability (NCI-H441; first compound 0.8 µM) of 0.403 and a relative viability (NCI-H441; first compound 2.53 µM) of 0.418. The relative viability (NCI-H441; first compound 8 µM) was 0.38, the relative viability (COR-L23; first compound 0.08 µM) was 0.663 and the relative viability (COR-L23; first compound 0.253 µM) was 0.865. For the same molecule, the relative viability (COR-L23; first compound 0.8 µM) was 0.78, the relative viability (COR-L23; first compound 2.53 µM) was 0.609 and the relative viability (COR-L23; first compound 8 µM) was 0.693. It also gave a relative viability (LU99A; first compound 0.08 µM) of 0.281, a relative viability (LU99A; first compound 0.253 µM) of 0.306 and a relative viability (LU99A; first compound 0.8 µM) of 0.305. For the same molecule, the relative viability (LU99A; first compound 2.53 µM) was 0.286, the relative viability (LU99A; first compound 8 µM) was 0.307 and the relative viability (NCI-H2170; first compound 0.08 µM) was 0.355. For the same molecule, the relative viability (NCI-H2170; first compound 0.253 µM) was 0.299, the relative viability (NCI-H2170; first compound 0.8 µM) was 0.318 and the relative viability (NCI-H2170; first compound 2.53 µM) was 0.274. The relative viability (NCI-H2170; first compound 8 µM) was 0.272, the relative viability (NCI-H838; first compound 0.08 µM) was 0.43 and the relative viability (NCI-H838; first compound 0.253 µM) was 0.376. The relative viability (NCI-H838; first compound 0.8 µM) was 0.444, the relative viability (NCI-H838; first compound 2.53 µM) was 0.386 and the relative viability (NCI-H838; first compound 8 µM) was 0.478. It also gave a relative viability (NCI-H1666; first compound 0.08 µM) of 0.49, a relative viability (NCI-H1666; first compound 0.253 µM) of 0.555 and a relative viability (NCI-H1666; first compound 0.8 µM) of 0.295. The relative viability (NCI-H1666; first compound 2.53 µM) was 0.41, the relative viability (NCI-H1666; first compound 8 µM) was 0.346 and the relative viability (COR-L 105; first compound 0.08 µM) was 0.437. The relative viability (COR-L 105; first compound 0.253 µM) was 0.422, the relative viability (COR-L 105; first compound 0.8 µM) was 0.469 and the relative viability (COR-L 105; first compound 2.53 µM) was 0.432. For the same molecule, the relative viability (COR-L 105; first compound 8 µM) was 0.343, the relative viability (LK-2; first compound 0.08 µM) was 0.444 and the relative viability (LK-2; first compound 0.253 µM) was 0.662. For the same molecule, the relative viability (LK-2; first compound 0.8 µM) was 0.555, the relative viability (LK-2; first compound 2.53 µM) was 0.461 and the relative viability (LK-2; first compound 8 µM) was 0.396.
